SMILES strings stand for the structures.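 Exposure lasted 48 hours, with cells grown in 96-well plates and compounds tested at five concentrations. GI50 = concentration required for 50% inhibition of growth. The concentration for full growth arrest is given as TGI.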

Among the test systems are KM12 colon; UO-31 renal; SF-268 CNS; HCT-116 colon; PC-3 prostate; NCI-H460 lung; HT29 colon; SNB-19 CNS; K-562 leukemia; SN12C renal.
What all share (assay): NCI anticancer screen, dose series, 48 h

Turning to `O=C(N/N=C/c1c(Cl)cccc1Cl)c1ccc(C(F)(F)F)nc1Nc1cccc(C(F)(F)F)c1`, the GI50 in the assay with KM12 colon was 1.1 µM; with UO-31 renal it was 1.49 µM; in the assay with SF-268 CNS, 1.22 µM; with HCT-116 colon, 0.461 µM; with PC-3 prostate, 0.767 µM; in the assay on NCI-H460 lung, 0.419 µM. Further, the GI50 in the assay on HT29 colon is 1.24 µM; with SNB-19 CNS it was 1.55 µM; with K-562 leukemia, 0.491 µM; in the assay on SN12C renal, 0.912 µM. In addition, the TGI in the assay with KM12 colon is over 30 µM; with UO-31 renal it was 5.82 µM; in the assay with SF-268 CNS, over 29.3 µM; in the assay on HCT-116 colon it was 38.8 µM; with PC-3 prostate, over 21.1 µM; in the assay with NCI-H460 lung it was 6.13 µM. In addition, the figures for the TGI in the assay with HT29 colon, in the assay with SNB-19 CNS and in the assay with SN12C renal were over 100 µM, over 100 µM and 20.8 µM, respectively.
Regarding `C[C@]12CC[C@@H]3c4ccc(O)c([N+](=O)[O-])c4CC[C@H]3[C@@H]1CC[C@@H]2NS(=O)(=O)c1cccc(Br)c1`, the GI50 in the assay on KM12 colon is 1.89 µM; in the assay on UO-31 renal, 2.19 µM; with SF-268 CNS it was 2.99 µM; in the assay on HCT-116 colon it was 1.92 µM; with PC-3 prostate, 2.56 µM; in the assay with NCI-H460 lung, 1.81 µM. The GI50 in the assay with HT29 colon is 1.94 µM; in the assay with SNB-19 CNS, 3.53 µM; in the assay on K-562 leukemia it was 3.1 µM; with SN12C renal, 1.72 µM. For the same compound, the TGI in the assay with KM12 colon amounted to 4.05 µM; with UO-31 renal, 5.63 µM; with SF-268 CNS, 10.3 µM; in the assay on HCT-116 colon, 4.17 µM; in the assay with PC-3 prostate, 11.1 µM; with NCI-H460 lung, 3.56 µM. Moreover, the TGI was found to be 3.92 µM in the assay on HT29 colon, 14.1 µM with SNB-19 CNS, 10.7 µM in the assay with K-562 leukemia and 3.54 µM with SN12C renal.
Turning to `O=[N+]([O-])c1ccc(CSCc2ccc(Cl)cc2)cc1`, the TGI with KM12 colon, in the assay on UO-31 renal, with SF-268 CNS, with HCT-116 colon, with PC-3 prostate and with NCI-H460 lung was over 100 µM throughout. Also, the TGI with HT29 colon, in the assay with SNB-19 CNS, in the assay on K-562 leukemia and in the assay with SN12C renal was over 100 µM throughout.
On to `O=C(Nc1ccc(Cl)c(Cl)c1)Nc1ccccc1O`, for which the GI50 was 3.35 µM in the assay on KM12 colon; 2.48 µM with UO-31 renal; 9.59 µM with SF-268 CNS; 7.22 µM in the assay on HCT-116 colon; 3.09 µM in the assay with PC-3 prostate; 4.03 µM with NCI-H460 lung. The GI50 with HT29 colon was 18.5 µM; in the assay on SNB-19 CNS it was 9.92 µM; in the assay with K-562 leukemia, 3.4 µM; with SN12C renal, 8.4 µM. The TGI came to 13.7 µM with KM12 colon; 18.4 µM in the assay with UO-31 renal; 27.4 µM with SF-268 CNS; 33.5 µM in the assay with HCT-116 colon; 27.9 µM in the assay on PC-3 prostate; 16.1 µM with NCI-H460 lung. Besides, the TGI is 36.1 µM with HT29 colon, 44.3 µM in the assay with SNB-19 CNS, 76.8 µM with K-562 leukemia and 25.1 µM with SN12C renal.
